Source: paper PMC9763333, “In vitro characterization of immune modulating drug-eluting immunobeads towards transarterial embolization in cancer” (Scientific Reports, 2022)
Several values for one entry are separate records, joined by “and”; a condition that tells them apart may be missing. Equal entries are not always repeated. Structures can show the parent of a compound that is named as a salt.

Legend:
[1] = Drug solubilization by salt formation in acid; type: physicochemical; conditions: T in °C in parentheses in the cell (20.1 or 21.1)
Procedure, shortened: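 Drug base suspended in water and titrated with 0.1 N HCl until dissolved, at a final 2.5 mg/mL; solution lyophilized to the hydrochloride salt or used directly for DC Bead LUMI loading. GS-9620 and its decomposition product analyzed by C8 reversed-phase HPLC (UV 230 nm) and LC/MS.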

[2] = Drug loading into DC Bead LUMI; type: physicochemical; conditions: for Maximum drug loaded: n = 3, base form except Dox (salt form); for Theoretical maximum loading level based on SO3− contents: per mL DC Bead LUMI, assuming 1:1 drug to sulfonate
Procedure, shortened: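 Loading done in triplicate; amount loaded = initial drug in loading solution minus drug remaining and cumulative drug withdrawn for sampling. Maximum loading taken when loading-solution concentration stopped changing, before washing; relative % loading expressed on a molar basis against available SO3^- ions, mean ± SD.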

[3] = Drug loading into LC Bead; type: physicochemical; conditions: per 1 mL LC Bead
Protocol: Drug loading was performed in triplicate as previously reported[45] with slight modifications. Briefly, 1.3 molar equivalent of each drug was mixed with one molar equivalent of sulfonate group of DC Bead LUMI or LC Bead. The drug-bead mixture was agitated with upright rocking motion at a set maximum rocking speed of 10 which corresponds to 70 rpm, for 144 h at ambient temperature (Ward's® Rotating Mixers, VWR, Bridgeport, NJ). At specified time points (5, 15, 30 and 45 min and then hourly for eight hours followed by 24, 48, 72 and 144 h) a 10 µL aliquot was withdrawn from the loading solution to quantify drug loading based on the change in concentration over time. […] The concentration of drug in each aliquot of loading solution at each time point was quantified by HPLC as described above using a linear standard curve obtained from solutions of known concentration of each drug (7.8–125 μg/mL) versus the detector response as area under the curve. The amount of drug loaded at the specified time points was calculated by subtracting the amount of drug remaining from the initial amount of drug in the loading solution and the cumulative amount of drug withdrawn for sampling. The maximum drug loaded in the beads was calculated once no further change in the concentration in the loading solution could be measured and before washing the beads. […]

[4] = Drug release from DC Bead LUMI in saline; type: physicochemical; conditions: for drug eluted from DC Bead LUMI: saline, single replicates
Procedure, shortened: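 Beads loaded with drug (62.5 µL of DC Bead LUMI) were placed in 50 mL of saline (0.9 mg/mL, pH 7.4) and rocked upright at 37 °C at speed setting 10 (70 rpm). At each sampling time, 1 mL of medium was taken for drug quantification and replaced with 1 mL of fresh saline pre-warmed to 37 °C. Cumulative release accounted for drug removed in earlier samples, and the 50 mL volume kept sink conditions.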

[5] = parameters: method as in PMID 28188808; conditions: 0.065 mmol Dox per milliliter of beads, constant agitation, depending on bead size; cited from earlier work
[6] = parameters: method as in PMID 17483878; conditions: cited from earlier work

COc1cccc2c1C(=O)c1c(O)c3c(c(O)c1C2=O)C[C@@](O)(C(=O)CO)C[C@@H]3O[C@H]1C[C@H](N)[C@H](O)[C@H](C)O1 [Dox, doxorubicin hydrochloride]
pH at which each drug dissolved for loading [1]: 4.2 (21.1) | drug loaded above the predicted capacity of the bead ([2]; DC Bead LUMI): approximately 23% | loading behaviour ([2]; DC Bead LUMI): slower loading | equivalent of drug loaded to sulfonated bead ([2]; DC Bead LUMI, mean ± SD): 0.35 ± 0.01 mM drug/ml beads | Maximum drug loaded ([2]; DC Bead LUMI, mean ± SD): 204.54 ± 3.87 mg drug/ml beads and 205 ± 4 mg drug/ml beads | Maximum drug loaded ([2]; DC Bead LUMI, mean ± SD, listed as Doxorubicin HCl): 204.54 ± 3.87 mg drug/ml beads | Maximum drug loaded (Triplicate), % ([2]; DC Bead LUMI, single replicates): 121.32% and 125.547% and 121.757% | Drug: sulfonate ([2]; molar ratio at maximum loading, DC Bead LUMI): 1.228 | Theoretical maximum loading level based on SO3− contents [2]: 166.50 mg | Theoretical maximum loading level based on SO3− contents ([2]; listed as Doxorubicin HCl): 166.5 mg | average amount of Dox loaded into 1 mL of LC Bead [3]: 33.58 ± 3.08 mg | drug eluted from DC Bead LUMI ([4]; 5 min): 0.8697 µmol and 0.7574 µmol and 0.6743 µmol | drug eluted from DC Bead LUMI ([4]; 15 min): 0.9785 µmol and 0.9763 µmol and 0.879 µmol | drug eluted from DC Bead LUMI ([4]; 30 min): 1.239 µmol and 1.282 µmol and 1.112 µmol | drug eluted from DC Bead LUMI ([4]; 45 min): 1.546 µmol and 1.5359 µmol and 1.496 µmol | drug eluted from DC Bead LUMI ([4]; 60 min): 1.899 µmol and 1.906 µmol and 1.678 µmol | drug eluted from DC Bead LUMI ([4]; 120 min): 3.985 µmol and 3.46 µmol and 3.165 µmol | drug eluted from DC Bead LUMI ([4]; 180 min): 6.141 µmol and 6.4405 µmol and 5.733 µmol | drug eluted from DC Bead LUMI ([4]; 240 min): 7.976 µmol and 7.077 µmol and 7.054 µmol | drug eluted from DC Bead LUMI ([4]; 300 min): 9.987 µmol and 9.178 µmol and 9.242 µmol | drug eluted from DC Bead LUMI ([4]; 360 min): 12.6965 µmol and 11.2108 µmol and 10.9569 µmol | drug eluted from DC Bead LUMI ([4]; 420 min): 14.5125 µmol and 12.8898 µmol and 12.4195 µmol | drug eluted from DC Bead LUMI ([4]; 480 min): 16.4266 µmol and 14.4776 µmol and 14.2688 µmol | drug eluted from DC Bead LUMI ([4]; 1440 min): 47.172 µmol and 44.3546 µmol and 42.6335 µmol | drug eluted from DC Bead LUMI ([4]; 2880 min): 68.0842 µmol and 61.0855 µmol and 60.2496 µmol | drug eluted from DC Bead LUMI ([4]; 4320 min): 76.8802 µmol and 71.2335 µmol and 68.2708 µmol | drug eluted from DC Bead LUMI ([4]; 8640 min): 74.6523 µmol and 73.8043 µmol and 71.6405 µmol | release behaviour in saline ([4]; DC Bead LUMI): slow release | Dox released from DC Bead LUMI ([4]; Figure 11 legend, mean ± SD, n = 3): 74.4 ± 0.5 µmol Dox/ mL DC Bead LUMI | time to load drug to DC Bead LUMI [5]: 2 to 3 h | previously reported amount of Dox loaded into LC Bead [6]: 39.0 ± 3.8 mg/mL
